Data: the supplement of paper PMC10307832

Assays:
Test in all cases: relative viability (nuclei count vs DMSO), 5 days (fraction); higher = more cells survive
[1] = compound: Cn1c(Nc2ccc(C(F)(F)F)cc2)nc2cc(Oc3ccnc(-c4ncc(C(F)(F)F)[nH]4)c3)ccc21 [RAF265] + N=C(N)NC(=N)NCCc1ccccc1 [Phenformin] (partner 250 µM)
Procedure, shortened: (§1)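 Medians of duplicate plates are given as relative viability. That measure is the nuclei count in treated wells divided by the count in vehicle wells. Counts were taken on 4× images of lung cancer cell lines in 1536-well plates, 5 days after pin-tool dosing the day after seeding with one drug alone or a fixed anchor-drug dose plus five library-drug doses (not always all listed) in √10 steps.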

[2] = compound: Cn1c(Nc2ccc(C(F)(F)F)cc2)nc2cc(Oc3ccnc(-c4ncc(C(F)(F)F)[nH]4)c3)ccc21 [RAF265] + CS(=O)(=O)CCNCc1ccc(-c2ccc3ncnc(Nc4ccc(OCc5cccc(F)c5)c(Cl)c4)c3c2)o1 [Lapatinib] (partner 2 µM)
Procedure, shortened: as §1

[3] = compound: Cc1ccc(-n2nc(C(C)(C)C)cc2NC(=O)Nc2ccc(OCCN3CCOCC3)c3ccccc23)cc1 [Doramapimod] + Cc1nc(Nc2ncc(C(=O)Nc3c(C)cccc3Cl)s2)cc(N2CCN(CCO)CC2)n1 [Dasatinib] (partner 0.075 µM)
Procedure, shortened: as §1

[4] = compound: C1=CC=C2C(=C1)C=CC(=C2SSC3=C(C=CC4=CC=CC=C43)O)O [IPA-3] + Cc1nc(Nc2ncc(C(=O)Nc3c(C)cccc3Cl)s2)cc(N2CCN(CCO)CC2)n1 [Dasatinib] (partner 0.075 µM)
Procedure, shortened: as §1

Row | Cell Line | relative viability ([1]; first compound 0.01 µM) | relative viability ([1]; first compound 0.03162 µM) | relative viability ([1]; first compound 0.1 µM) | relative viability ([1]; first compound 0.3162 µM) | relative viability ([1]; first compound 1 µM) | relative viability ([2]; first compound 0.01 µM) | relative viability ([2]; first compound 0.03162 µM) | relative viability ([2]; first compound 0.1 µM) | relative viability ([2]; first compound 0.3162 µM) | relative viability ([2]; first compound 1 µM) | relative viability ([3]; first compound 0.02 µM) | relative viability ([3]; first compound 0.06325 µM) | relative viability ([3]; first compound 0.2 µM) | relative viability ([3]; first compound 0.6325 µM) | relative viability ([3]; first compound 2 µM) | relative viability ([4]; first compound 0.2 µM) | relative viability ([4]; first compound 0.6325 µM) | relative viability ([4]; first compound 2 µM) | relative viability ([4]; first compound 6.325 µM) | relative viability ([4]; first compound 20 µM)
1 | NCI-H322M | 0.759 | 0.815 | 0.44 | 0.366 | 0.269 | 0.579 | 0.529 | 0.481 | 0.342 | 0.258 | 0.276 | 0.28 | 0.259 | 0.262 | 0.24 | 0.228 | 0.248 | 0.248 | 0.309 | 0.264
2 | ABC-1 | 0.21 | 0.223 | 0.228 | 0.187 | 0.21 | 1.08 | 1.01 | 1.2 | 1.25 | 0.886 | 0.572 | 0.581 | 0.539 | 0.534 | 0.498 | 0.666 | 0.477 | 0.536 | 0.708 | 0.58
3 | LK-2 | 0.445 | 0.417 | 0.385 | 0.63 | 0.402 | 0.879 | 0.875 | 1.06 | 1.03 | 0.632 | 0.241 | 0.278 | 0.202 | 0.213 | 0.22 | 0.261 | 0.27 | 0.222 | 0.28 | 0.282
4 | NCI-H2023 | 0.421 | 0.407 | 0.391 | 0.353 | 0.322 | 0.905 | 0.77 | 1.13 | 0.579 | 0.727 | 0.601 | 0.521 | 0.533 | 0.645 | 0.512 | 0.816 | 0.513 | 0.68 | 0.493 | 0.679
5 | NCI-H596 | 0.869 | 0.833 | 0.691 | 0.689 | 0.489 | 1.09 | 1.09 | 1.11 | 0.897 | 0.743 | 0.524 | 0.643 | 0.538 | 0.738 | 0.52 | 0.635 | 0.573 | 0.765 | 0.69 | 0.752
6 | SK-MES-1 | 0.62 | 0.404 | 0.341 | 0.263 | 0.2 | 0.468 | 0.449 | 0.366 | 0.349 | 0.269 | 0.374 | 0.406 | 0.413 | 0.41 | 0.33 | 0.339 | 0.329 | 0.47 | 0.333 | 0.44
7 | NCI-H1793 | 0.352 | 0.351 | 0.298 |  | 0.262 | 0.652 | 0.658 | 0.631 | 0.296 | 0.512 | 0.335 | 0.379 | 0.368 | 0.36 | 0.344 | 0.442 | 0.325 | 0.362 | 0.381 | 0.43
8 | NCI-H2405 | 0.424 | 0.372 | 0.384 | 0.344 | 0.261 | 1.09 | 1.08 | 0.924 | 0.999 | 0.607 | 0.222 | 0.219 | 0.2 | 0.403 | 0.188 | 0.221 | 0.204 | 0.204 | 0.163 | 0.211
9 | NCI-H460 | 0.529 | 0.463 | 0.483 | 0.399 | 0.394 | 1.01 | 0.934 | 0.853 |  | 0.646 | 0.445 | 0.499 | 0.488 | 0.535 | 0.437 | 0.757 | 0.45 | 0.422 | 0.539 | 0.363
10 | NCI-H1755 | 0.612 | 0.59 | 0.571 | 0.459 | 0.432 | 1.06 | 1.06 | 1.03 | 0.974 | 0.622 | 0.458 | 0.438 | 0.369 | 0.4 | 0.344 | 0.512 | 0.44 | 0.371 | 0.426 | 0.472
11 | NCI-H358 | 0.419 | 0.308 | 0.252 | 0.144 | 0.149 | 0.491 | 0.524 | 0.336 | 0.434 | 0.341 | 0.164 | 0.156 | 0.162 | 0.204 | 0.171 | 0.219 | 0.145 | 0.186 | 0.213 | 0.158
12 | NCI-H1734 | 0.458 | 0.376 | 0.32 | 0.317 | 0.257 | 1.08 | 0.854 | 0.866 | 0.806 | 0.485 | 0.443 | 0.405 | 0.426 | 0.509 | 0.39 | 0.564 | 0.486 | 0.459 | 0.507 | 0.444
13 | EPLC-272H | 0.267 | 0.323 | 0.261 | 0.249 | 0.206 | 0.976 | 0.707 | 0.655 | 0.855 | 0.343 | 0.438 | 0.326 | 0.435 | 0.479 | 0.332 | 0.337 | 0.325 | 0.413 | 0.411 | 0.543
14 | NCI-H2126 | 0.508 | 0.551 | 0.558 | 0.512 | 0.459 | 0.765 | 0.732 | 0.718 | 0.756 | 0.662 | 0.59 | 0.661 | 0.577 | 0.544 | 0.497 | 0.709 | 0.58 | 0.68 | 0.633 | 0.545
